Measured values reported in patent publication US6066642A, “Dihydropyridine-, pyridine-, benzopyran-4-one- and triazoloquinazoline derivative, their preparation and their use as adenosine receptor antagonists” (priority 1998, dated 2000).
Where two headings read alike, the source gives them in different places.

Legend:
[1] = molecular target: T1, A2a receptors (Rattus norvegicus, UniProt P30543); assay: radioligand binding, displacement of specific [3H]CGS 21680 binding in rat striatal membranes; details: for inhibition at 100 µM: 10^-4 M
T1 construct: Displacement of specific [^3 H]; from tissue; host or cells: rat striatal membranes
Procedure: ^b Displacement of specific [^3 H]
or as a percentage of specific binding displaced at 100 μM.

[2] = molecular target: T2, A1 receptors (Rattus norvegicus, UniProt P25099); assay: biochemical; assay type: binding; details: for inhibition at 100 µM: 10^-4 M, read-out: displacement of specific binding rA1
T2 sequence (P25099 1-326): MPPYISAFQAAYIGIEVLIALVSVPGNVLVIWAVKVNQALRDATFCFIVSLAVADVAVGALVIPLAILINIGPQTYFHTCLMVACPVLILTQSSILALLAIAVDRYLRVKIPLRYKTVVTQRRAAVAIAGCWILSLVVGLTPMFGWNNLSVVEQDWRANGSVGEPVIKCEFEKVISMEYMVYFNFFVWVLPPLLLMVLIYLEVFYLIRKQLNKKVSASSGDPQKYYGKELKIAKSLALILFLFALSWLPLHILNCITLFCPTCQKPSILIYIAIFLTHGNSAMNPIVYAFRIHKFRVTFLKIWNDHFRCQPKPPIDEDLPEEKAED
Procedure: ^a Displacement of specific [^3 H] PIA binding in rat brain
percentage of specific binding displaced at 100 μM.

[3] = molecular target: T3, human A3 receptors (Homo sapiens, UniProt P0DMS8); assay: radioligand binding, displacement of specific [125I]AB-MECA binding at human A3 receptors expressed in HEK-293 cells; details: for Ki: [125I]AB-MECA; for inhibition at 100 µM: 10^-4 M; for inhibition at 10 µM: 10^-5 M
T3 construct: expressed in transfected cells; host or cells: HEK-293 cells (membranes)
T3 sequence (P0DMS8 1-318): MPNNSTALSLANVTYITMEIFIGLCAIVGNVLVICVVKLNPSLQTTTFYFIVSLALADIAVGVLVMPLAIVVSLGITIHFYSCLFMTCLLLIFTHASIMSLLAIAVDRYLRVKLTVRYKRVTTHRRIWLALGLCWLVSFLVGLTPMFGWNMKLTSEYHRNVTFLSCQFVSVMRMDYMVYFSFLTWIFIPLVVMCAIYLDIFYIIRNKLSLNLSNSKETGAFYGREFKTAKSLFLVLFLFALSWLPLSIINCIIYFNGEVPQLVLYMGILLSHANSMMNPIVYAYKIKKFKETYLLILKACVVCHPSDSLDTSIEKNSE
Procedure: A3 receptors expressed in HEK293 cells, in membranes, expressed as
binding displaced at 100 μM.

[4] = Table 5, HEK-293 membranes, read-out: Ki hA3
[5] = Table 5, [3H]CGS 21680, rat striatal membranes, read-out: Ki rA2a
[6] = Table 5, read-out: displacement of specific binding rA2a
[7] = striatal membranes, read-out: K2 (rA2a)
[8] = Table 6, [3H]PIA, rat brain membranes, read-out: K2 (rA1)
[9] = Table 6, read-out: % inhibition hA3
[10] = Table 6, [3H]CGS 21680, rat striatal membranes, read-out: K2 (rA2a)
[11] = Table 6, HEK-293 membranes, read-out: K2 (hA3)
[12] = Table 7, [3H]CGS 21680, rat striatal membranes, read-out: Ki (rA2A)
[13] = Table 7, [3H]PIA, rat brain membranes, read-out: Ki (rA1)
[14] = Table 7, read-out: % of specific binding displaced hA3
[15] = Table 7, read-out: displacement of specific binding rA2A
[16] = Table 7, read-out: displacement of specific binding hA3
[17] = Table 15, [3H]CGS 21680, rat striatal membranes, read-out: Ki rA2A
[18] = Table 15, [3H]PIA, rat brain membranes, read-out: Ki rA1
[19] = Table 15, HEK membranes, read-out: Ki hA3

T1 sequence (P30543 whole entry): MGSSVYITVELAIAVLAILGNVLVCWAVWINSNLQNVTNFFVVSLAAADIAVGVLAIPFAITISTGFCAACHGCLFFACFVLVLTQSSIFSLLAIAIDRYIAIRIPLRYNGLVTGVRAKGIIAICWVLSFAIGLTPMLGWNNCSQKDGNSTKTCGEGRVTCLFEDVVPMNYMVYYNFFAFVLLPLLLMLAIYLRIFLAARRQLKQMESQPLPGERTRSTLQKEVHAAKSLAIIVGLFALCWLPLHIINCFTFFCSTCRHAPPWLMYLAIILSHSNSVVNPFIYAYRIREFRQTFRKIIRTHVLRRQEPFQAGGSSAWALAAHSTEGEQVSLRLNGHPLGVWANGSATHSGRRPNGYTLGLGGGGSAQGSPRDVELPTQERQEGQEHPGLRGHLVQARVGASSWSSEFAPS

COc1ccc2oc(C#Cc3ccccc3)c(O)c(=O)c2c1 [Compound 10, 2-phenylacetylenyl-3-hydroxy-6-methoxyflavone]
inhibition at 100 µM ([1]; Table 3, read-out: displacement of specific binding rA2a): < 10% | inhibition at 100 µM ([2]; Table 3): < 10% | rA1/hA3 [3]: > 8

COc1c2ccoc2cc2oc(C=O)cc(=O)c12 [Compound 18, 4-Methoxy-7-formyl-5H-furo [3,2-g][1]-benzopyrano-5-one]
inhibition at 100 µM ([1]; Table 5, read-out: % of specific binding displaced rA2a): 25 ± 8% | inhibition at 100 µM ([2]; Table 5): < 10% | Ki [3, 4]: 88.9 ± 27.1 µM | rA1/hA3 ([3]; Table 5, ratio of Ki): > 2

COc1c2ccoc2cc2oc(/C=C/c3ccccc3)cc(=O)c12 [Compound 19, 4-methyloxy-7-trans-styryl-visnagin]
Ki [1, 5]: 11.5 ± 1.3 µM | Ki ([2]; Table 5, [3H]PIA, rat brain membranes, read-out: Ki rA1): 32.6 ± 10.5 µM | Ki [3, 4]: 8.28 ± 2.69 µM | rA1/hA3 ([3]; Table 5, ratio of Ki): 0.37

COc1c2ccoc2cc2oc(/C=C/C=Cc3ccccc3)cc(=O)c12 [Compound 22, 4-methoxy-7-phenylbutadienyl visnagin]
inhibition at 100 µM [1, 6]: < 10% | inhibition at 100 µM ([2]; Table 5): < 10% | inhibition at 100 µM ([3]; Table 5, read-out: displacement of specific binding hA3): < 10%

CCOc1c2ccoc2cc2oc(/C=C/C=Cc3ccccc3)cc(=O)c12 [Compound 23, 4-ethoxy-7-phenylbutadienyl visnagin]
Ki [1, 5]: 167 µM | inhibition at 100 µM ([2]; Table 5): < 10% | rA1/hA3 ([3]; Table 5, ratio of Ki): > 4

COc1c2ccoc2cc2oc(C=Nc3ccccc3)cc(=O)c12 [Compound 24, 4-methoxy-7-(CH=N-phenyl)visnagin]
inhibition at 100 µM [1, 6]: < 10% | inhibition at 100 µM ([2]; Table 5): < 10% | rA1/hA3 ([3]; Table 5, ratio of Ki): > 20

O=c1cc(-c2ccccc2)oc2cc(O)ccc12 [Compound 26, reference compound]
Ki [1, 7]: 2.68 ± 0.68 µM | Ki [2, 8]: 3.03 ± 0.49 µM | inhibition at 100 µM [3, 9]: 41 ± 7%

COc1ccc(-c2cc(=O)c3ccc(O)cc3o2)cc1OC [Compound 27, reference compound]
Ki [1, 10]: 35.4 ± 7.3 µM | Ki [2, 8]: 18.8 ± 3.6 µM | inhibition at 100 µM [3, 9]: 32 ± 4%

O=c1cc(-c2ccc(O)cc2)oc2cc(O)cc(O)c12 [Compound 28, apigenin, reference compound]
Ki [1, 10]: 7.58 ± 1.23 µM | Ki [2, 8]: 3 ± 0.29 µM | inhibition at 10 µM [3, 9]: 63 ± 1%

COc1ccc(-c2cc(=O)c3c(O)cc(C)cc3o2)cc1 [Compound 29, reference compound]
Ki [1, 10]: 28 ± 7.35 µM | Ki ([2]; brain membranes, read-out: K2 (rA1)): 3.4 ± 0.35 µM | Ki [3, 11]: 6.7 ± 1.78 µM

COc1ccc(-c2cc(=O)c3c(O)cc(OC)cc3o2)cc1 [Compound 30, reference compound]
inhibition at 100 µM ([1]; Table 6, read-out: displacement of specific binding rA2a): < 10% | inhibition at 100 µM ([2]; Table 6): < 10% | inhibition at 10 µM [3, 9]: 69 ± 7%

COc1c(O)cc2oc(-c3ccc(O)cc3)cc(=O)c2c1O [Compound 32, hispidulin, reference compound]
Ki [1, 7]: 6.48 ± 0.65 µM | Ki [2, 8]: 1.61 ± 0.29 µM | inhibition at 10 µM [3, 9]: 63 ± 2%

COc1cc2oc(-c3ccc(O)cc3)cc(=O)c2c(O)c1OC [Compound 33, cirsimaritin, reference compound]
Ki [1, 10]: 3 ± 0.7 µM | Ki [2, 8]: 1.2 µM | Ki [3, 11]: 1.72 µM

CC(=O)Oc1cc(OC(C)=O)c2c(=O)c(OC(C)=O)c(-c3ccccc3)oc2c1 [Compound 34, 3,5,7-triacetoxyflavone]
Ki [1, 10]: 56.5 ± 9.5 µM | Ki [2, 8]: 11.6 ± 4.4 µM | Ki [3, 11]: 17.5 ± 2 µM

COc1ccc(-c2oc3cc(OC)cc(OC)c3c(=O)c2OC)c(OC)c1 [Compound 38, 2',3,4',5,7-pentamethyloxyflavone]
Ki [1, 10]: 46.7 ± 2.7 µM | Ki [2, 8]: 27.6 ± 7.5 µM | Ki [3, 11]: 2.65 µM

O=c1cc(-c2ccccc2)oc2c1ccc1ccccc12 [Compound 43, α-naphthoflavone, reference compound]
Ki [1, 12]: 1.32 ± 0.43 µM | Ki [2, 13]: 0.786 µM | inhibition at 10 µM [3, 14]: 71 ± 2%

O=c1cc(-c2ccccc2)oc2ccc3ccccc3c12 [Compound 44, β-naphthoflavone, reference compound]
inhibition at 100 µM [1, 15]: < 10% | Ki [2, 13]: 8.8 ± 3.6 µM | inhibition at 10 µM [3, 14]: 12 ± 1%

CCn1c2c(c3cc4c(cc3c1=O)OCO4)C(=O)CCC2 [Compound 46, reference compound]
Ki [1, 12]: 6.98 ± 2.21 µM | Ki [2, 13]: 7.59 ± 2.14 µM | inhibition at 100 µM [3, 14]: 19 ± 3%

COc1cc2c3c(c1)c1cc4c(cc1c(=O)n3CC2)OCO4 [Compound 47, oxogalanthine lactam, reference compound]
inhibition at 100 µM [1, 15]: < 10% | Ki [2, 13]: 5.55 ± 0.83 µM | inhibition at 100 µM [3, 16]: < 10%

COC1C=CC23c4cc5c(cc4C[N+](C)(CC2OC(C)=O)C3C1)OCO5 (centres unmarked) [Compound 48, acetylhaemanthine methiodide, reference compound]
inhibition at 100 µM [1, 15]: < 10% | Ki [2, 13]: 52.5 ± 3.7 µM | inhibition at 100 µM [3, 16]: < 10%

Oc1cc2c(cc1O)[C@@H]1c3ccc(O)c(O)c3OC[C@]1(O)C2 [Compound 50, hematoxylin, reference compound]
inhibition at 100 µM ([1]; Table 7, read-out: % of specific binding displaced rA2A): 28 ± 2% | Ki [2, 13]: 3.1 ± 0.6 µM | inhibition at 100 µM [3, 16]: < 10%

COc1cc2c(c(O)c1OC)c(=O)c1ccccc1n2C [Compound 51, 1-hydroxy-2,3-dimethoxy-10-methyl-9(10H)-acridinone, reference compound]
Ki [1, 12]: 6.47 ± 1.9 µM | Ki [2, 13]: 12.7 ± 1.2 µM | inhibition at 100 µM [3, 14]: 63 ± 7%

CCOC(=O)C1=C(C)NC(C)=C(C(=O)OC)C1C#Cc1ccccc1 (centres unmarked) [Compound 76]
Ki ([1]; Table 9, [3H]CGS 21680, rat striatal membranes, read-out: Ki rA2A): 38.3 ± 7.9 µM | Ki ([2]; Table 9, [3H]PIA, rat brain membranes, read-out: Ki rA1): 5.39 ± 0.33 µM | greater affinity to A1 than A2a adenosine receptors ([2]; selectivity in words): greater affinity to A1 adenosine receptors than A2a receptors | Ki ([3]; Table 9, HEK membranes, read-out: Ki hA3): 0.94 ± 0.7 µM | greater affinity for A3 than A1 or A2a adenosine receptors ([3]; selectivity in words): greater affinity for A3 adenosine receptors than A1 or A2a adenosine receptors

CCOC(=O)c1c(C)nc(C)c(C(=O)OC)c1C [Compound 80]
Ki ([1]; Table 10, [3H]CGS 21680, rat striatal membranes, read-out: Ki rA2a): 8.96 ± 0.93 µM | Ki ([2]; Table 10, [3H]PIA, rat brain membranes, read-out: Ki rA1): 6.95 ± 2.66 µM | Ki ([3]; Table 10, HEK membranes, read-out: Ki hA3): 29.5 ± 2.1 µM

COC(=O)c1c(C)nc(C)c(C(=O)OC)c1-c1ccccc1[N+](=O)[O-] [Compound 82, reference compound]
inhibition at 100 µM ([1]; Table 10, read-out: displacement of specific binding rA2a): < 10% | inhibition at 100 µM ([2]; Table 10): < 10% | inhibition at 100 µM ([3]; Table 10, read-out: displacement of specific binding hA3): < 10%

CCC(=O)Nc1nc2ccc(Cl)cc2c2nc(-c3ccco3)nn12 [Compound 146, 9-Chloro-2-(2-furyl)-5-propionylamino[1,2,4]triazolo[1,5-c]quinazoline]
Ki [1, 17]: 0.106 ± 0.03 µM | Ki [2, 18]: 0.283 ± 0.042 µM | Ki [3, 19]: 0.00766 ± 0.00303 µM | rA1/hA3 ([3]; Table 15, ratio of Ki): 40 | rA2A/hA1 ([3]; Table 15, ratio of Ki): 14

CCCC(=O)Nc1nc2ccc(Cl)cc2c2nc(-c3ccco3)nn12 [Compound 147, 5-Butyrylamino-9-chloro-2-(2-furyl)[1,2,4]triazolo[1,5-c]quinazoline]
Ki [1, 17]: 0.004 µM | Ki [2, 18]: 0.0325 ± 0.0094 µM | rA1/hA3 [3]: 2.2 | Ki [3, 19]: 0.0146 ± 0.0028 µM

CCCCC(=O)Nc1nc2ccc(Cl)cc2c2nc(-c3ccco3)nn12 [Compound 148, 9-Chloro-2-(2-furyl)-5-pentanoylamino[1,2,4]triazolo[1,5-c]quinazoline]
Ki [1, 17]: 0.016 µM | Ki [2, 18]: 0.0289 ± 0.0037 µM | Ki [3, 19]: 0.0215 ± 0.0062 µM | rA1/hA3 ([3]; Table 15, ratio of Ki): 1.3

CC(C)(C)C(=O)Nc1nc2ccc(Cl)cc2c2nc(-c3ccco3)nn12 [Compound 149, 9-Chloro-2-(2-furyl)-5-trimethylacetylamino[1,2,4]triazolo [1,5-c]quinazoline]
Ki [1, 17]: 0.06 µM | Ki [2, 18]: 0.205 ± 0.02 µM | Ki [3, 19]: 0.244 ± 0.006 µM | rA1/hA3 ([3]; Table 15, ratio of Ki): 0.84

O=C(Nc1nc2ccc(Cl)cc2c2nc(-c3ccco3)nn12)c1ccccc1 [Compound 151, 5-Benzoylamino-9-chloro-2-(2-furyl)[1,2,4]triazolo[1,5-c]quinazoline]
Ki [1, 17]: 0.349 ± 0.042 µM | Ki [2, 18]: 0.665 ± 0.082 µM | Ki [3, 19]: 0.00405 ± 0.00139 µM | rA1/hA3 ([3]; Table 15, ratio of Ki): 164 | rA2A/hA1 ([3]; Table 15, ratio of Ki): 86
